Laboratory results published in patent US10781224B2, “Bis(oxymethyl)phosphinic acid and biogenic metal salts thereof as regulators of plant growth and development” (priority 2016, dated 2020).

Tested on: winter wheat (Vershin variety)
Assay: Winter wheat seed treatment with BHMPA salts: germinating power (length and mass of roots and sprouts)
Format: in vivo
Method in brief: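 Seeds (50 per Petri dish on two layers of filter paper) soaked 1 h in BHMPA or its Ca, Mg, Na, Co, Mn, Cu or Zn salts at 1·10^−6-1·10^−12%, with water controls. Germination energy read on day 4, germination on day 8 (wheat) or day 7 (rice, corn), as % means of four replicates. Germinating power taken as root and sprout length plus wet and dry mass per 100 seedlings.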

[1] = comparative study, 1·10^−11% solution

SMILES: O=P([O-])(CO)CO.O=P([O-])(CO)CO.[Mg+2] [Mg-salt, Magnesium BHMPA Salt]
- Length, root (1·10^−6% solution): 9.2 cm
- Length, root, + % to control (1·10^−6% solution): −1%
- Length, sprout (1·10^−6% solution): 7.1 cm
- Length, sprout, + % to control (1·10^−6% solution): −1%
- Mass, dry, root (1·10^−6% solution): 0.57 g/100 plantlings
- Mass, dry, root, + % to control (1·10^−6% solution): −2%
- Mass, dry, sprout (1·10^−6% solution): 0.65 g/100 plantlings
- Mass, dry, sprout, + % to control (1·10^−6% solution): −15%
- Mass, wet, root (1·10^−6% solution): 2.55 g/100 plantlings
- Mass, wet, root, + % to control (1·10^−6% solution): −1%
- Mass, wet, sprout (1·10^−6% solution): 5.45 g/100 plantlings
- Mass, wet, sprout, + % to control (1·10^−6% solution): −2.5%
- germinating power results vs control (1·10^−6% solution): lower than those of the control
- Length, root (1·10^−7% solution): 10.0 cm
- Length, root, + % to control (1·10^−7% solution): 7.5%
- Length, sprout (1·10^−7% solution): 7.2 cm
- Length, sprout, + % to control (1·10^−7% solution): 0%
- Mass, dry, root (1·10^−7% solution): 0.61 g/100 plantlings
- Mass, dry, root, + % to control (1·10^−7% solution): 5%
- Mass, dry, sprout (1·10^−7% solution): 0.79 g/100 plantlings
- Mass, dry, sprout, + % to control (1·10^−7% solution): 2.6%
- Mass, wet, root (1·10^−7% solution): 2.68 g/100 plantlings
- Mass, wet, root, + % to control (1·10^−7% solution): 3%
- Mass, wet, sprout (1·10^−7% solution): 5.63 g/100 plantlings
- Mass, wet, sprout, + % to control (1·10^−7% solution): 0.7%
- Length, root (1·10^−8% solution): 10.0 cm
- Length, root, + % to control (1·10^−8% solution): 7.5%
- Length, sprout (1·10^−8% solution): 7.4 cm
- Length, sprout, + % to control (1·10^−8% solution): 3%
- Mass, dry, root (1·10^−8% solution): 0.62 g/100 plantlings
- Mass, dry, root, + % to control (1·10^−8% solution): 7%
- Mass, dry, sprout (1·10^−8% solution): 0.80 g/100 plantlings
- Mass, dry, sprout, + % to control (1·10^−8% solution): 4%
- Mass, wet, root (1·10^−8% solution): 2.97 g/100 plantlings
- Mass, wet, root, + % to control (1·10^−8% solution): 15.5%
- Mass, wet, sprout (1·10^−8% solution): 5.79 g/100 plantlings
- Mass, wet, sprout, + % to control (1·10^−8% solution): 3.6%
- Length, root (1·10^−9% solution): 10.9 cm
- Length, root, + % to control (1·10^−9% solution): 17%
- Length, sprout (1·10^−9% solution): 7.5 cm
- Length, sprout, + % to control (1·10^−9% solution): 4%
- Mass, dry, root (1·10^−9% solution): 0.63 g/100 plantlings
- Mass, dry, root, + % to control (1·10^−9% solution): 8.6%
- Mass, dry, sprout (1·10^−9% solution): 0.81 g/100 plantlings
- Mass, dry, sprout, + % to control (1·10^−9% solution): 5%
- Mass, wet, root (1·10^−9% solution): 2.98 g/100 plantlings
- Mass, wet, root, + % to control (1·10^−9% solution): 16%
- Mass, wet, sprout (1·10^−9% solution): 5.81 g/100 plantlings
- Mass, wet, sprout, + % to control (1·10^−9% solution): 4%
- Length, root (1·10^−10% solution): 11.3 cm
- Length, root, + % to control (1·10^−10% solution): 21.5%
- Length, sprout (1·10^−10% solution): 7.5 cm
- Length, sprout, + % to control (1·10^−10% solution): 4%
- Mass, dry, root (1·10^−10% solution): 0.66 g/100 plantlings
- Mass, dry, root, + % to control (1·10^−10% solution): 24%
- Mass, dry, sprout (1·10^−10% solution): 0.83 g/100 plantlings
- Mass, dry, sprout, + % to control (1·10^−10% solution): 8%
- Mass, wet, root (1·10^−10% solution): 2.94 g/100 plantlings
- Mass, wet, root, + % to control (1·10^−10% solution): 14%
- Mass, wet, sprout (1·10^−10% solution): 5.84 g/100 plantlings
- Mass, wet, sprout, + % to control (1·10^−10% solution): 4.5%
- Length, root (1·10^−11% solution): 12.2 cm
- Length, root, + % to control (1·10^−11% solution): 31%
- Length, sprout (1·10^−11% solution): 7.7 cm
- Length, sprout, + % to control (1·10^−11% solution): 7%
- Mass, dry, root (1·10^−11% solution): 0.74 g/100 plantlings
- Mass, dry, root, + % to control (1·10^−11% solution): 27.5%
- Mass, dry, sprout (1·10^−11% solution): 1.07 g/100 plantlings
- Mass, dry, sprout, + % to control (1·10^−11% solution): 39%
- Mass, wet, root (1·10^−11% solution): 3.41 g/100 plantlings
- Mass, wet, root, + % to control (1·10^−11% solution): 33%
- Mass, wet, sprout (1·10^−11% solution): 5.94 g/100 plantlings
- Mass, wet, sprout, + % to control (1·10^−11% solution): 6%
- Length, root (1·10^−12% solution): 12.1 cm
- Length, root, + % to control (1·10^−12% solution): 30%
- Length, sprout (1·10^−12% solution): 7.6 cm
- Length, sprout, + % to control (1·10^−12% solution): 5.5%
- Mass, dry, root (1·10^−12% solution): 0.69 g/100 plantlings
- Mass, dry, root, + % to control (1·10^−12% solution): 19%
- Mass, dry, sprout (1·10^−12% solution): 0.84 g/100 plantlings
- Mass, dry, sprout, + % to control (1·10^−12% solution): 9%
- Mass, wet, root (1·10^−12% solution): 3.11 g/100 plantlings
- Mass, wet, root, + % to control (1·10^−12% solution): 21%
- Mass, wet, sprout (1·10^−12% solution): 5.86 g/100 plantlings
- Mass, wet, sprout, + % to control (1·10^−12% solution): 5%
- Length, root [1]: 10.0 cm
- Length, root, + % to control [1]: 15%
- Length, sprout [1]: 7.2 cm
- Length, sprout, + % to control [1]: 16%
- Mass, dry, root [1]: 0.69 g/100 plantlings
- Mass, dry, root, + % to control [1]: 11%
- Mass, dry, sprout [1]: 0.57 g/100 plantlings
- Mass, dry, sprout, + % to control [1]: 12%
- Mass, wet, root [1]: 5.76 g/100 plantlings
- Mass, wet, root, + % to control [1]: 59%
- Mass, wet, sprout [1]: 5.04 g/100 plantlings
- Mass, wet, sprout, + % to control [1]: 27%
